Patent publication US20260306434A1, “VERY LONG CHAIN FATTY ACIDS FOR USE IN MINERALIZATION” (Epax Norway AS, priority 2023, published 2026)

What was measured:
[1] = test system: hFOB 1.19 human foetal osteoblasts; test: Fatty acid composition of hFOB cells (Ex. 4); format: cell-based; settings: 2 μM; 7 days
Experimental: Total lipids were extracted from homogenised tissue or sonicated extracts of cells (for Ex. 4) following the method previously described by Folch et al., For both skin tissue and whole-body analyses, pooled samples from each tank (n=10 per tank, n=30 per diet group) were analysed for lipid composition. For cells, three individual cell culture flasks per treatment group were analysed. The fatty acid composition was analysed using the method described by Mason and Waller.
Methyl esters were separated and analysed in a GC (Hewlett Packard 6890; HP) with a split injector using an SGE BPX70 capillary column (length, 60 m; internal diameter, 0.25 mm; and film thickness, 0.25 um; SGE Analytical Science) flame ionsation detector, and HP chem Station software. Helium was used as the carrier gas, and both the injector and detector temperatures were 280° C. The oven temperature started at 50° C. for 1.2 min and then increased […] to 170° C. at a rate of 4° C./min, followed by 200° C. at a rate of 0.5° C./min, and finally 280° C. at a rate of 10° C./min. The individual fatty acid peaks were identified by comparing the retention times with validated standards; GLC reference 463 and 85 (Nu-chek Prep, Elysian, MN). The absolute amount of fatty acid per gram of tissue or cells was calculated using 23:0 methyl ester as an internal standard (IS). Unidentified peaks were not included in the total fatty acid calculation.
The VLC-PUFA composition of cells and whole-body extracts was analysed using a Scion TQ 8300 GC-MS/MS with a split/splitless injector (splitless 1 min) with a Restek Rxi-5 ms capillary column (length, 30 m; internal diameter, 0.25 mm; and film thickness, […]). Hydrogen was used as the carrier gas, with split-injection and detector temperatures of 250° C. and 270° C., respectively. The oven temperature started at 90° C. for 1.5 min and was ramped up to 220° C. at a rate of 30° C./min, then 275° C. at a rate of 1.21° C./min, and finally 310° C. at a rate of 6.5° C./min. The instrument was run in MRM mode with 79.1-77.1 and 79-55.1 as transitions for VLC PUFAs and 143.1-55.1 for C23:0. The response factor for DHA (relative to C23:0) was calculated using standard solutions of known concentrations of DHA and C23:0. As no standards for VLC fatty acids were available for the VLC-PUFAs, the same response factor as for DHA was assumed and used to calculate concentrations of VLC-PUFAs.
A human foetal osteoblast cell line (hFOB 1.19, ATCC, CRL-11372) was used in the experiments. Cells were cultured according to the manufacturer's instructions. Basal medium comprised a 1:1 mixture of Ham's F12 Medium Dulbecco's Modified Eagle's Medium with 2.5 mM L-glutamine (without phenol red) (Sigma-Aldrich, Darmstadt, Germany). Complete growth medium was prepared using 0.3 mg/mL G418 (Sigma-Aldrich, Darmstadt, Germany) supplemented with 10% foetal bovine serum (T7524, Sigma-Aldrich, Darmstadt, Germany). Cells were incubated at 34° C., with 5% C02 (In-Vitro Cell NU-8600E, NUAIRE, Minnesota, U.S.) and sub-cultured at approximately 80% confluency at a ratio of 1:4. Growth medium was renewed every 2-3 days. Cells cultured for differentiation were supplemented with osteogenic factors, ascorbic acid (100 μg/mL; A8960, Sigma-Aldrich, Darmstadt, Germany) and β-glycerophosphate (10 mM; G9422, Sigma-Aldrich, Darmstadt, Germany). Once the cells reached confluency, the temperature was increased to 37° C. to stop proliferation and induce differentiation. The osteogenic media was renewed every 2-3 days.
Fatty acids were added to the growth media in the form of their sodium salts bound to bovine serum albumin (BSA, Sigma-Aldrich, Darmstadt, Germany; 2.7:1 molar ratio). The pH was adjusted to 7 using NH4OH. n-3 VLC-PUFA (the VLC-PUFA concentrate of Table 3.1, right column) and DHA (Sigma-Aldrich, Darmstadt, Germany) concentrates were prepared as 1 and 8 mM stocks, respectively, and were added to the media at concentrations of 1 and 2 μM. […]

[2] = test system: primary Atlantic salmon keratocytes; test: Cell migration of primary Atlantic salmon keratocytes from scales (Ex. 2); format: cell-based; settings: 25 ng/mL; 24 h; vs control (P=0.0145)
Experimental: In these cell culture experiments fatty acids were added to growth media in the form of their sodium salts bound to bovine serum albumin (BSA; 2.7:1 molar ratio). The pH was adjusted to 7 using NH4OH. DHA was purchased from Sigma (Sigma Aldrich, Darmstadt, Germany). The n-3 VLCPUFA 26:6 n-3 and VLC-Conc2 (Table 1.1) were both prepared as 1-mM stock solutions and DHA was prepared as an 8-mM stock solution. All fatty acid solutions were stored at −80° C.
Growth medium (GM) was prepared as L-15 (11544436, Fischer Scientific) supplemented with 5% FBS (F2442, Sigma-Aldrich), 1% anti/anti (A5955, Sigma-Aldrich; 15240062 Fischer Scientific), and 1% HEPES (H0887, Sigma-Aldrich). The test substrates added were either 25 ng/mL fibroblast growth factor (FGF) (106096-93-9, Sigma-Aldrich), 10 μM VLCPUFA (26:6 n-3), or 20 μM VLCPUFA (26:6 n-3). Controls were left untreated. […]
The day after isolation, all wells were inspected under a microscope to determine the migration potential of the scales. All scales with migration were counted to determine the immediate effect of the VLCPUFA on cell migration. […] The number of scales with cell migration was counted and divided by the number of attached scales to calculate the percentage of scales with cell migration, as attachment is a prerequisite for cell migration. […]
For histology, five fish from each tank, giving a total of 15 fish per treatment, were analysed. […]

CC/C=C\C/C=C\C/C=C\C/C=C\C/C=C\C/C=C\CCC(=O)O [DHA, docosahexaenoic acid]
14:0, mean [1]: 38.3 μg/g sample | 16:0, mean [1]: 648.5 μg/g sample | 16:2 n-6, mean [1]: 52.5 μg/g sample | 17:0, mean [1]: 12.5 μg/g sample | 18:0, mean [1]: 315.8 μg/g sample | 18:1 n-7, mean [1]: 135.0 μg/g sample | 18:1 n-9, mean [1]: 554.6 μg/g sample | 18:2 n-6, mean [1]: 40.6 μg/g sample | 18:3 n-6, mean [1]: 11.5 μg/g sample | 20:0, mean [1]: 10.1 μg/g sample | 20:1 n-9, mean [1]: 16.2 μg/g sample | 20:1 n-11, mean [1]: 7.1 μg/g sample | 20:2 n-6, mean [1]: 18.8 μg/g sample | 20:3 n-6, mean [1]: 20.6 μg/g sample | 20:4 n-3, mean [1]: 8.8 μg/g sample | 20:4 n-6, mean [1]: 106.7 μg/g sample | 20:5 n-3, mean [1]: 19.3ab μg/g sample | 22:0, mean [1]: 7.3 μg/g sample | 22:4 n-6, mean [1]: 13.7 μg/g sample | 22:5 n-3, mean [1]: 26.2 μg/g sample | 24:1 n-9, mean [1]: 3.9 μg/g sample | 24:5 n-3, mean [1]: 76.5 μg/g sample | 24:6 n-3, mean [1]: 56.5 μg/g sample | 26:5 n-3, mean [1]: 1.7ab μg/g sample | 26:6 n-3, mean [1]: 3.3ab μg/g sample | 28:8 n-3, mean [1]: 0.0a μg/g sample | SUM EPA/DHA, mean [1]: 115.6b μg/g sample | SUM FA, mean [1]: 2670.3 μg/g sample | Sum of MUFAs, mean [1]: 871.5 μg/g sample | Sum of SFAs, mean [1]: 1045.0 μg/g sample | Sum of n-3 PUFAs, mean [1]: 164.0ab μg/g sample | Sum of n-6 PUFAs, mean [1]: 226.2 μg/g sample | Sum others, mean [1]: 168.3 μg/g sample

fibroblast growth factor [FGF]
scales with cell migration [2]: significant difference
